Patent US4868193A, “Styryl tetrazoles and anti-allergic use thereof” (Rorer Pharmaceutical Corporation, priority 1986, dated 1989)
Structures can show the parent of a compound that is named as a salt. Where two headings read alike, the source gives them in different places.

Experiments:
[1] = system: LTD4 (leukotriene D4)-induced contraction of guinea pig peripheral lung strips; experiment: In vitro assay to identify leukotriene antagonist compounds (guinea pig lung strips), vs LTD4; assay type: cell-based; details: 50% reduction of muscle response, read-out: In Vitro I50
Experimental: (§1) In Vitro Assay to Identify Leukotriene Antagonist Compounds […] Peripheral strips of guinea pig lungs are prepared and hung in tissue baths according to the procedure described by Drazen et al. Male guinea pigs (Charles River, 250-400 g) are sacrificed by cervical dislocation and their lungs rapidly removed. The individual lobes are dissected free and rinsed in Assay Buffer which is continuously aerated with 95% oxygen-5% carbon dioxide. After the lobes are extensively rinsed, a strip of lung tissue, approximately 2 mm thick and 5-8 cm long, is cut off the sharpest and most peripheral portion of each lobe. The peripheral edge is cut almost completely around the outside of the lobe so that a U-shaped strip is obtained. These strips are rinsed in Assay Buffer and then connected with surgical silk thread to the support rods from the tissue baths. The rods are adjusted in the baths and the strips connected to the pressure transducers. The tissue baths are aerated with 95% oxygen-5% carbon dioxide and maintained at 37°. The tension on these strips is adjusted to 500 mg with "re-zeros" the pen deflection on the previously calibrated polygraph. Tissues are initially washed with fresh buffer every 5-10 minutes for about 30 minutes. Thereafter, tissues were washed with fresh assay buffer at least every 20 minutes. Normalizing Muscle Contractions and Testing of Compounds 1. After the tissues have been repeatedly washed and allowed to equilibrate in the tissue bath, they are challenged with 1μM histamine. [Usually 10 μl of a 1 mM stock solution are added to the baths.] After maximum concentrations have been obtained, then tissues are washed and allowed to relax back to baseline tension. This histamine challenge procedure is repeated at least 1 or 2 more times to obtain a repeatable control response. […] Leukotriene (usually 0.4 units/ml) is added after the desired preincubation time and the muscle response is recorded. […] From this curve the concentration responding to the 50% reduction of the muscle concentration is calculated as the ^I 50 value. […]

[2] = system: LTC4-induced contraction of guinea pig peripheral lung strips; experiment: In vitro assay to identify leukotriene antagonist compounds (guinea pig lung strips), vs LTC4; assay type: cell-based; details: Cavia porcellus, 50% reduction of muscle response, read-out: In Vitro I50
Experimental: as §1

[3] = system: LTD4 (leukotriene D4)-induced cutaneous wheal formation; experiment: Leukotriene D4-induced wheal formation in the guinea pig; design: species or system guinea pig (male Hartley); details: Cavia porcellus, po, 1 h, p.o., 0.1 μg LTD4 intradermally, given one hour before Evans blue dye, read-out: In Vivo LTD4 Wheal, ED50
Experimental: Leukotriene D4 -Induced Wheal formation in the Guinea Pig Leukotriene D4 (LTD4) increases vascular permeability in guinea pig skin. LTD4 antagonists are tested for oral activity in a model of LTD4 -induced cutaneous wheal formation in the guinea pig. Male Hartley guinea pigs are given either vehicle (polyethylene glycol 400) or test compound by gauge one hour before intravenous injection of 1% Evans blue dye. Immediately after dye injection, 0.1 μg of LTD4 (in a volume of 0.1 ml) is injected intradermally at two separate dorsal sites. Thirty minutes later, the animals are sacrificed by carbon dioxide asphyxiation, the dorsal skins reflected, and glued wheal areas measured. Mean values±standard error for wheal areas in vehicle- and drug-treated groups are determined. Inhibition of wheal formation is calculated by comparison of drug-treated and control groups.

Row | SMILES | IC50 ([1]; Cavia porcellus) [nM] | IC50 [2] [nM] | IC50 ([1]; hydrochloride) [nM] | ED50 [3] [mg/kg]
1 | N#CC=Cc1cccc(OCc2ccc3ccccc3n2)c1 [Example 1B, 3-(Quinolin-2-yl-methoxy)-cinnamylnitrile] | 650 | 1200 | – | –
2 | C(=Cc1nnn[nH]1)c1cccc(OCc2ccc3ccccc3n2)c1.Cl [Example 1C, 5-[3-(Quinolin-2-yl-methoxy)styryl]-tetrazole hydrochloride] | 60 | 150 | 80 | 22
3 | C(=Cc1nnn[nH]1)c1ccc(OCc2ccc3ccccc3n2)cc1 [Example 2C, 5-[4-(Quinolin-2-yl-methoxy)styryl]-tetrazole hydrochloride] | – | 500 | – | –
